Reference: patent US4048307A, “Cyclic adenosine monophosphate 8-substituted derivatives” (priority 1974, dated 1977)

Assays:
CHO-Ki cells [1] = test: Reverse transformation of cultured CHO-Ki cells (c-AMP level elevation, membrane permeability by L.R.C.); format: cell-based, Chinese hamster; details: for minimal effective concentration: Cricetulus griseus, microscopic analysis after 16 and 30 hours, read-out: L.R.C. (limiting reverse-transformable concentration)
Method: We utilized their test system and tested new derivatives as regards the following two properties:
The tests were conducted in the following manner according to the modification of the method of Hsie and Puck:
2. The membrane permeability was evaluated based on the reverse transformation. More specifically, new derivatives were added at a concentration of 10^-3, 5 × 10^-2, 10^-1, 2× 10^-1, 5 × 10^-1 or 1 millimole/liter to the above-mentionedmedium. After 16 and 30 hours, microscopic analysis was conducted, and the limiting reverse-transformable concentration (referred to as "L.R.C.") was determined and the membrane permeability was evaluated, based on the so determined L.R.C. value.
***The membrane permeability was determined based on the minimum
concentration causing the re-transformation of cultured CHO-Ki cells. (Th

[2] = target: Hog Brain Phosphodiesterase (PDE); test: Inhibition of c-AMP hydrolysis by hog brain phosphodiesterase (PDE); format: biochemical; details: for Ki: Lineweaver-Burk plot slope and Dixon plot cross-point, read-out: Inhibition II: Inhibition Constant (Ki); for Inhibition I: Relative Inhibition: c-AMP 1.0, derivative 1.0 millimole/liter
Method: **PDE inhibition was evaluated based on the relative inhibition observed
when the sample compound was added at the same molar concentration as tha
of the substrate (1 millimole/liter) and the inhibition constant (ki)
calculated according to the enzymological method (Lineweaver-Burk plot).
The enzyme purification was conducted by ammonium sulfate fractionation and passage through DEAE cellulose column according to the modification of the method of T. S. Teo, T. T. Wang et al. (J. Biol. Chemi. 248, 585). […] Reaction and analysis were carried out as taught by Bucher and Sutherland [J. Biol. Chemi., 237, 1244 (1962)].
*: The values were calculated according the following equation: 100
containing no inhibitor.
**: Ki values were calculated from the slope of Lineweaver-Burk plot and
the cross-point of Dixon plot.?

[3] = system: Hog Brain Phosphodiesterase (PDE); test: as above; format: biochemical; details: c-AMP 1.0, derivative 0.5 millimole/liter
protein kinases = details: Hsie and Puck; cited from earlier work
[4] = system: Hog Brain Phosphodiesterase (PDE); details: Hsie and Puck; cited from earlier work
CHO-Ki cells [5] = details: 10^-3 mole/liter; Hsie and Puck; cited from earlier work

Compound	minimal effective concentration (CHO-Ki cells [1])	Ki [2]	Inhibition I: Relative Inhibition [2]	Toxic (remark at 10^-3 mole/liter) (CHO-Ki cells [1])	Inhibition I: Relative Inhibition [3]	protein kinase activation (literature) (protein kinases)	PDE inhibition (literature) [4]	reverse transformation of CHO-Ki (literature) (CHO-Ki cells [5])
CCCSc1nc2c(N)ncnc2n1[C@@H]1O[C@@H]2COP(=O)(O)O[C@H]2[C@H]1O [8-CH3 (CH2)2 S-c-AMP, 8-n-propylmercapto-c-AMP]	~400 µM	78 µM	60.1%	–	–	–	–	–
CCCCCCCCCCNc1nc2c(N)ncnc2n1[C@@H]1O[C@@H]2COP(=O)(O)O[C@H]2[C@H]1O [8-CH3 (CH2)9 NH-c-AMP, 8-n-decylamino-c-AMP]	~80 µM	82 µM	–	Toxic	67.6%	–	–	–
CCCCCCCCCCCCCNc1nc2c(N)ncnc2n1[C@@H]1O[C@@H]2COP(=O)(O)O[C@H]2[C@H]1O [8-CH3 (CH2)12 NH-c-AMP, 8-n-tridecylamino-c-AMP]	~90 µM	840 µM	–	Toxic	11.3%	–	–	–
CCCCCCCCNc1nc2c(N)ncnc2n1[C@@H]1O[C@@H]2COP(=O)(O)O[C@H]2[C@H]1O [8-CH3 (CH2)7 NH-c-AMP, 8-n-octylamino-c-AMP]	–	–	–	–	80.0%	–	–	–
CCCCCCCCCCCNc1nc2c(N)ncnc2n1[C@@H]1O[C@@H]2COP(=O)(O)O[C@H]2[C@H]1O [8-CH3 (CH2)10 NH-c-AMP, 8-n-undecylamino-c-AMP]	~50 µM	170 µM	–	Toxic	51.4%	–	–	–
CCCCCCCCCCCCSc1nc2c(N)ncnc2n1[C@@H]1O[C@@H]2COP(=O)(O)O[C@H]2[C@H]1O [8-CH3 (CH2)11 S-c-AMP, 8-n-dodecylmercapto-c-AMP]	< 5 µM	140 µM	26.4%	Toxic	–	–	–	–
CCCCCCCNc1nc2c(N)ncnc2n1[C@@H]1O[C@@H]2COP(=O)(O)O[C@H]2[C@H]1O [8-CH3 (CH2)6 NH-c-AMP, 8-n-heptylamino-c-AMP]	–	26 µM	78.2%	–	–	–	–	–
CCCCCCSc1nc2c(N)ncnc2n1[C@@H]1O[C@@H]2COP(=O)(O)O[C@H]2[C@H]1O [8-CH3 (CH2)5 S-c-AMP, 8-n-hexylmercapto-c-AMP]	300 µM	19 µM	92.4%	–	–	–	–	–
CCCCCCCCSc1nc2c(N)ncnc2n1[C@@H]1O[C@@H]2COP(=O)(O)O[C@H]2[C@H]1O [8-CH3 (CH2)7 S-c-AMP, 8-n-octylmercapto-c-AMP]	20 µM	16 µM	95.0%	Toxic	–	–	–	–
CCCCSc1nc2c(N)ncnc2n1[C@@H]1O[C@@H]2COP(=O)(O)O[C@H]2[C@H]1O [8-CH3 (CH2)3 S-c-AMP, 8-n-butylmercapto-c-AMP]	~400 µM	74 µM	64.3%	–	–	–	–	–
CCCC(=O)Nc1ncnc2c1ncn2[C@@H]1O[C@@H]2COP(=O)(O)O[C@H]2[C@H]1OC(=O)CCC [N^6,O^2' -dibutyryl-c-AMP]	–	–	–	–	–	activate protein kinases	inhibits PDE to elevate the intracellular c-AMP level	reversely transformed from the epitherial form to the fibroblast form
CCCCCCCCCCCSc1nc2c(N)ncnc2n1[C@@H]1O[C@@H]2COP(=O)(O)O[C@H]2[C@H]1O [8-CH3 (CH2)10 S-c-AMP, 8-n-undecylmercapto-c-AMP]	< 5 µM	88 µM	39.1%	Toxic	–	–	–	–
CNc1nc2c(N)ncnc2n1[C@@H]1O[C@@H]2COP(=O)(O)O[C@H]2[C@H]1O [8-CH3 NH-c-AMP, 8-methylamino-c-AMP, reference compound]	~500 µM	210 µM	47.6%	–	–	–	–	–
CCCCCCCCCCSc1nc2c(N)ncnc2n1[C@@H]1O[C@@H]2COP(=O)(O)O[C@H]2[C@H]1O [8-CH3 (CH2)9 S-c-AMP, 8-n-decylmercapto-c-AMP]	< 5 µM	46 µM	–	Toxic	68.2%	–	–	–
CCCCCCCSc1nc2c(N)ncnc2n1[C@@H]1O[C@@H]2COP(=O)(O)O[C@H]2[C@H]1O [8-CH3 (CH2)6 S-c-AMP, 8-n-heptylmercapto-c-AMP]	300 µM	–	–	–	90.4%	–	–	–
CCCCCCCCCSc1nc2c(N)ncnc2n1[C@@H]1O[C@@H]2COP(=O)(O)O[C@H]2[C@H]1O [8-CH3 (CH2)8 S-c-AMP, 8-n-nonylmercapto-c-AMP]	10 µM	31 µM	–	Toxic	74.9%	–	–	–
Nc1ncnc2c1nc(Br)n2[C@@H]1O[C@@H]2COP(=O)(O)O[C@H]2[C@H]1O [Example 8-Br-c-AMP, 8-bromo-c-AMP, reference compound]	~200 µM	470 µM	38.9%	–	–	–	–	–
CCCNc1nc2c(N)ncnc2n1[C@@H]1O[C@@H]2COP(=O)(O)O[C@H]2[C@H]1O [8-CH3 (CH2)2 NH-c-AMP, 8-n-propylamino-c-AMP]	–	230 µM	51.1%	–	–	–	–	–
CCCCCNc1nc2c(N)ncnc2n1[C@@H]1O[C@@H]2COP(=O)(O)O[C@H]2[C@H]1O [8-CH3 (CH2)4 NH-c-AMP, 8-n-pentylamino-c-AMP]	–	72 µM	62.3%	–	–	–	–	–
CCCCCCCCCCCCNc1nc2c(N)ncnc2n1[C@@H]1O[C@@H]2COP(=O)(O)O[C@H]2[C@H]1O [8-CH3 (CH2)11 NH-c-AMP, 8-n-dodecylamino-c-AMP]	~70 µM	660 µM	–	Toxic	18.3%	–	–	–
CCCCCCCCCNc1nc2c(N)ncnc2n1[C@@H]1O[C@@H]2COP(=O)(O)O[C@H]2[C@H]1O [8-CH3 (CH2)8 NH-c-AMP, 8-n-nonylamino-c-AMP]	–	27 µM	–	–	71.3%	–	–	–
CCCCCSc1nc2c(N)ncnc2n1[C@@H]1O[C@@H]2COP(=O)(O)O[C@H]2[C@H]1O [8-CH3 (CH2)4 S-c-AMP, 8-n-amylmercapto-c-AMP]	400 µM	40 µM	76.7%	–	–	–	–	–
CCCCCCNc1nc2c(N)ncnc2n1[C@@H]1O[C@@H]2COP(=O)(O)O[C@H]2[C@H]1O [8-CH3 (CH2)5 NH-c-AMP, 8-n-hexylamino-c-AMP]	–	58 µM	76.1%	–	–	–	–	–
CCCCNc1nc2c(N)ncnc2n1[C@@H]1O[C@@H]2COP(=O)(O)O[C@H]2[C@H]1O [8-CH3 (CH2)3 NH-c-AMP, 8-n-butylamino-c-AMP]	~300 µM	120 µM	55.6%	–	–	–	–	–
